Like-named read-outs stand apart in the source and are kept apart here.

The values below come from patent publication US11590139B2, “Substituted aminopurine compounds, compositions thereof, and methods of treatment therewith” (Signal Pharmaceuticals, LLC, priority 2014, dated 2023).

For the test, the system named is Lox-IMVI melanoma cell line. Nature of the test: Lox-IMVI anti-proliferative assay (growth inhibition, Cell Titer-Glo). It is filed as cell-based, human. The following applies: Homo sapiens. The essentials:
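IC50 values reflect the concentration giving 50% of DMSO-control luminescence after 72 h of treatment, fitted with a four-parameter logistic model. Cells were cultured in RPMI + 10% FBS with compound from 0.5 nM to 10 μM.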
(In ATP-based viability assays light output follows the ATP content of the culture.)

Setting [1] is: IC50 activity level in the cell-based Lox-IMVI anti-proliferative assay, read-out: Activity.
Setting [2] is: Lox-IMVI melanoma cell line, anti-proliferative assay, read-out: Activity (IC50 activity level).
The mark [3] stands for this setting: Lox-IMVI anti-proliferative assay, IC50 activity level, read-out: Activity.

Turning to `CC[C@H](C)Nc1ncc2nc(Nc3c(F)cc(F)cc3Cl)n([C@H]3CC[C@@H](C(N)=O)CC3)c2n1` [Example 338, (1R,4s)-4-(2-(sec-butylamino)-8-(2-chloro-4,6-difluorophenylamino)-9H-purin-9-yl)cyclohexanecarboxamide], the IC50 under setting [1] lay in the range of 500 to 1000 nM.

As for `Cc1ccc(S(=O)(=O)N2CCC[C@@H](Nc3ncc4nc(Nc5c(F)cc(F)cc5F)n([C@H]5CC[C@@H](C(N)=O)CC5)c4n3)C2)cc1` [Example 791, (1S,4s)-4-(2-((R)-1-tosylpiperidin-3-ylamino)-8-(2,4,6-trifluorophenylamino)-9H-purin-9-yl)cyclohexanecarboxamide], the IC50 under setting [2] was above 1000 nM. As for `CS(=O)(=O)N1CCC(Nc2ncc3nc(Nc4c(Cl)cc(F)cc4Cl)n([C@H]4CC[C@@H](C(N)=O)CC4)c3n2)CC1` [Example 297, (1s,4s)-4-(8-(2,6-dichloro-4-fluorophenylamino)-2-(1-(methylsulfonyl)piperidin-4-ylamino)-9H-purin-9-yl)cyclohexanecarboxamide], the IC50 under setting [1] was above 1000 nM. Take `C[C@]1(C(N)=O)CC[C@@H](n2c(Nc3c(Cl)cc(Cl)cc3Cl)nc3cnc(N[C@H]4CCOC[C@@H]4F)nc32)CC1` [Example 802, (1R,4s)-4-(2-(((3R,4S)-3-fluorotetrahydro-2H-pyran-4-yl)amino)-8-((2,4,6-trichlorophenyl)amino)-9H-purin-9-yl)-1-methylcyclohexane-1-carboxamide]: under “Lox-IMVI anti-proliferative assay, cell-based, read-out: Activity (IC50 activity level)”, the IC50 was below 250 nM. As to `CS(=O)(=O)N1CCC(Nc2ncc3nc(Nc4c(Cl)cccc4Cl)n([C@H]4CC[C@@H](C(N)=O)CC4)c3n2)CC1` [Example 293, (1s,4s)-4-(8-(2,6-dichlorophenylamino)-2-(1-(methylsulfonyl)piperidin-4-ylamino)-9H-purin-9-yl)cyclohexanecarboxamide], the IC50 under setting [1] is above 1000 nM.

For `NC(=O)[C@H]1CC[C@@H](n2c(Nc3c(F)cccc3Cl)nc3cnc(NC4COC4)nc32)CC1` [Example 57, (1s,4s)-4-(8-(2-chloro-6-fluorophenylamino)-2-(oxetan-3-ylamino)-9H-purin-9-yl)cyclohexanecarboxamide], under setting [1], the IC50 was above 1000 nM. For the molecule `NC(=O)[C@H]1CC[C@@H](n2c(Nc3c(F)cc(F)cc3F)nc3cnc(N[C@@H]4CCO[C@H](CO)C4)nc32)CC1` [Example 446, (1S,4s)-4-(2-((2S,4R)-2-(hydroxymethyl)tetrahydro-2H-pyran-4-ylamino)-8-(2,4,6-trifluorophenylamino)-9H-purin-9-yl)cyclohexanecarboxamide], the IC50 under setting [3] was above 1000 nM. Regarding `N#Cc1cc(F)c(Nc2nc3cnc(N[C@@H]4CCC(F)(F)C4)nc3n2[C@H]2CC[C@@H](C(N)=O)CC2)c(F)c1` [Example 697, (1S,4s)-4-(8-(4-cyano-2,6-difluorophenylamino)-2-((R)-3,3-difluorocyclopentylamino)-9H-purin-9-yl)cyclohexanecarboxamide], under setting [2], the IC50 is 250 to 500 nM.

Consider `N#Cc1cc(F)c(Nc2nc3cnc(N[C@H]4CCOC[C@H]4F)nc3n2[C@H]2CC[C@@H](C(N)=O)CC2)c(Cl)c1` [Example 670, (1R,4s)-4-(8-(2-chloro-4-cyano-6-fluorophenylamino)-2-((3S,4S)-3-fluorotetrahydro-2H-pyran-4-ylamino)-9H-purin-9-yl)cyclohexanecarboxamide], for which the IC50 under setting [2] is below 250 nM. For the molecule `C[C@@H](CO)Nc1ncc2nc(Nc3c(Cl)cc(C(F)(F)F)cc3Cl)n([C@H]3CC[C@@](C)(C(N)=O)CC3)c2n1` [Example 554, (1R,4s)-4-(8-(2,6-dichloro-4-(trifluoromethyl)phenylamino)-2-((S)-1-hydroxypropan-2-ylamino)-9H-purin-9-yl)-1-methylcyclohexanecarboxamide], the IC50 under setting [3] lay within 500 to 1000 nM. In the case of `NC(=O)[C@H]1CC[C@@H](n2c(Nc3c(F)cc(Cl)cc3Cl)nc3cnc(N[C@@H]4CCCOC4)nc32)CC1` [Example 190, (1S,4s)-4-(8-(2,4-dichloro-6-fluorophenylamino)-2-((R)-tetrahydro-2H-pyran-3-ylamino)-9H-purin-9-yl)cyclohexanecarboxamide], the IC50 under setting [1] is above 1000 nM.
